Consider 13 molecules from patent publication US8592415B2, “Selective kinase inhibitors” (Reaction Biology Corp., priority 2009, dated 2013).

Test [1] concerns myeloid dendritic cells (DCs). The settings on record: cited from earlier work.
The subject of test [2] is JAK3 phosphorylation. In words: JAK3 phosphorylation detection by immunoprecipitation and Western blot. The test is classed as cell-based, human. The conditions noted are these: 0.8 μM compound with IL-2; IL-2 alone more than 12-fold. How it is done:
Cell lines: The SZ-4 cell line is derived from a Sézary patient (Abrams, et al., 1991, J Investig Dermatol. 96, 31-37), and the growth of this cell line is IL-2 dependent. The cells are grown in RPMI 1640 medium supplemented with 10% fetal calf serum, 2 mM L-glutamine, penicillin 100 U/ml, streptomycin 100 ug/ml, and 10 I.U/ml IL-2 in a 5% CO2 humidified incubator at 37° C.
Protein and phosphorylation detection by immunoprecipitation and Western Blot: the above cells is used to evaluate the compounds activities of inhibiting JAK/STAT phosphorylations. After the cells are treated as described above, cells are collected and pelleted by centrifuging, cell pellets are then lysed with PI/RIPA lysis buffer (1% NP40, 1% Deoxycholic Acid, 0.1% SDS, 0.15M NaCl, 10 mM Sodium Phosphate, 1 mM PMSF, 2 mM EDTA, 10 mM NaF, 10 mM Napyrophosphate, 0.4 mM Na3VO4, 10 mM Indoacetamide, PH, 8.0) on ice. The lysed cells are centrifuged at 15,000 rpm to remove cell debris, add 5 ul of Anti-Phosphotyrosine, 4G10® Platinum (Upstate Biotechnology, Lake Placid, N.Y.), and incubate for 90 min on ice. Then, the protein A-Sepharose (Invitrogen, Carlsbad, Calif.) is added to precipitate the immune complexes for 1 hr at 4° C. The immunoprecipitates are washed 3× with lysis buffer, and suspended in loading buffer. […]

The target in test [3] is T1, JAK3 (Homo sapiens (Human), UniProt P52333). In words: In vitro JAK kinase enzymatic assay (JAK3). The test is classed as biochemical. How it is done: (§1) The JAK3 kinase is recombinant human protein (catalytic domain, amino acids 781-1124 with GST-tag), expressed in insect cells (Invitrogen Catalog PV3855). The substrate is poly-glutamic acid-tyrosin peptide, Poly-(GT) (4:1) (Sigma-Aldrich, catalog P7244). [γ-^33P]-ATP is purchased from Perkin Elmer (catalog NEG602H001MC) (EasyTides). Kinase reaction buffer is 100 mM HEPES (pH 7.5), 20 mM MgCl2, 2 mM EGTA, 0.02% Brij 35. The JAK1 (Invitrogen Catalog PV4774), JAK2 (Invitrogen Catalog PV4210) and TYK2 Invitrogen Catalog PV4790) enzymatic assays are performed in the similar way. JAK1 and JAK2 substrate is Poly-(GT) (4:1), but TYK2 substrate is peptide with sequences of […]. The reaction is carried for 2 hours at room temperature. After the reactions are finished or stopped, portion or all the reaction mixtures are transferred onto filter paper P81 Phosphocellulose paper (Whatman catalog 3698-915) for binding the final radioisotope labeled products. The unreacted phosphate are washed away without interfering with the detection of real phosphorylated products. The final product can be detected by instruments such as scintillation counter, top counter or phosphoimager. The enzymatic assays can also performed in assays described those described in the art [e.g., Ma H et al, Expert Opin. Drug Discov. 3, 607-621 (2008); Olive D M, Expert Rev Proteomics, 1, 327-341 (2004)].
(§2) Signal=Bottom+(Top−Bottom)/(1+10^((Log(IC50)−Log [I])*Hill Slope) Bottom and Top refer to the post and pre-transition baselines, respectively.
Target sequence in this assay (P52333 781-1124): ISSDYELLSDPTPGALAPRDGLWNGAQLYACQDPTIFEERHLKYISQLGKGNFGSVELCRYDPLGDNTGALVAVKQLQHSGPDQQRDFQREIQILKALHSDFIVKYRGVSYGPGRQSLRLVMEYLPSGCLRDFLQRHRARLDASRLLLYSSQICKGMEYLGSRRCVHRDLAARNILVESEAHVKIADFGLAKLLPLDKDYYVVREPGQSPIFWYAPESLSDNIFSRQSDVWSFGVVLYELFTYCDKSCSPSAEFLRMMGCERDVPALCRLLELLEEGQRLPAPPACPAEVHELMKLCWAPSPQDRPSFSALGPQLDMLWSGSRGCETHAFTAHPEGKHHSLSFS

For test [4], the target named is TYK2 (Homo sapiens (Human), UniProt P29597). The experiment in a line: In vitro JAK kinase enzymatic assay (TYK2). The class given is biochemical. On the procedure: as §1, §2
Chain of TYK2 (P29597 whole entry): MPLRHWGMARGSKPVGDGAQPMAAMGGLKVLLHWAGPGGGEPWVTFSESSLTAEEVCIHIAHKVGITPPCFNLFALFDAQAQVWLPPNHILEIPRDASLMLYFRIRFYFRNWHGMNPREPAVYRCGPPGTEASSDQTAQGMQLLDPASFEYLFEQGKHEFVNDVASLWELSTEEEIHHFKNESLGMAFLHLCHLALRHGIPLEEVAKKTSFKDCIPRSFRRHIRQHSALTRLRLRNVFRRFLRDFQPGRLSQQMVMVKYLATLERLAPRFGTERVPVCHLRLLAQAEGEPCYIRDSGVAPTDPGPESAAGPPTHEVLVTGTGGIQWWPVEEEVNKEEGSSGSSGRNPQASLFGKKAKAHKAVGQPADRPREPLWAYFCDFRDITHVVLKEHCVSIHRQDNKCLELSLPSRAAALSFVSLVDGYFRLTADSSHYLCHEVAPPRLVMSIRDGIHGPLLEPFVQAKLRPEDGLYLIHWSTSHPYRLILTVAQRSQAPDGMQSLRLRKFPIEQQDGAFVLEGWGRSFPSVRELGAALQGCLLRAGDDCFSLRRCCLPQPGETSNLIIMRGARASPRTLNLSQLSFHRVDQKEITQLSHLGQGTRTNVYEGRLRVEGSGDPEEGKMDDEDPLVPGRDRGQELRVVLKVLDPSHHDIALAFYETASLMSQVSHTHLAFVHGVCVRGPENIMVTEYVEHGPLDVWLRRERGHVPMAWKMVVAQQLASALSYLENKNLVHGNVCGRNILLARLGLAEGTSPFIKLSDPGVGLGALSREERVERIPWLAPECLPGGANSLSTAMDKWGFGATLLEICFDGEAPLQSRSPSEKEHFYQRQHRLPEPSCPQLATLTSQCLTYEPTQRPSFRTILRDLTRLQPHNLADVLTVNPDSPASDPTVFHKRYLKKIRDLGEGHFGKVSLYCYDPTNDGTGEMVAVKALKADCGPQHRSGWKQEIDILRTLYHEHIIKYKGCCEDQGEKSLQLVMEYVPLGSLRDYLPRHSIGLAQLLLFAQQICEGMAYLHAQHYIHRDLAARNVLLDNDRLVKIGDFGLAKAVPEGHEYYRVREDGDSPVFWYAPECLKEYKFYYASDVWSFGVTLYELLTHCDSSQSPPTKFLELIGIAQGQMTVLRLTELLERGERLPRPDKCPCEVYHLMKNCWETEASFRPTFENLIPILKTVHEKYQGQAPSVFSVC
Test [5] deals with JAK2 (Homo sapiens, UniProt O60674). The experiment in a line: In vitro JAK kinase enzymatic assay (JAK2). The test is classed as biochemical. How it is done:
as §1, with “The” for “The JAK3 kinase is recombinant human protein (catalytic domain, amino acids 781-1124 with GST-tag), expressed in insect cells (Invitrogen Catalog PV3855). The”, “After the reactions are finished or stopped, portion or all the reaction mixtures are transferred onto filter paper P81 Phosphocellulose paper (Whatman catalog 3698-915) for binding the final radioisotope labeled products.” left out, “Discov.” for “Discov. 3, 607-621 (2008); Olive D M, Expert Rev Proteomics, 1, 327-341 (2004)].”
as §2

Test [6] deals with JAK2. In words: In vitro JAK kinase enzymatic assay (JAK2). The class given is biochemical. How it is done: as §1, with “The” for “The JAK3 kinase is recombinant human protein (catalytic domain, amino acids 781-1124 with GST-tag), expressed in insect cells (Invitrogen Catalog PV3855). The”, “After the reactions are finished or stopped, portion or all the reaction mixtures are transferred onto filter paper P81 Phosphocellulose paper (Whatman catalog 3698-915) for binding the final radioisotope labeled products.” left out, “Discov.” for “Discov. 3, 607-621 (2008); Olive D M, Expert Rev Proteomics, 1, 327-341 (2004)].”
as §2

Test [7] deals with JAK1 (Homo sapiens, UniProt P23458). In words: In vitro JAK kinase enzymatic assay (JAK1). The class given is biochemical. How it is done:
as §1, §2

For test [8], the system named is SZ-4 cells. The experiment in a line: IL-2 dependent cell proliferation assay (MTT). The test is classed as cell-based. The settings on record: Homo sapiens, 72 hr, IL-2, MTT, read-out: IC50, inhibition of proliferation. The text has this: The number of surviving cells is directly proportional to the level of the formazan product created.
Test [9] has as its system collagen-induced arthritis. The conditions noted are these: rat; cited from earlier work.
Test [10] deals with adjuvant-induced arthritis. The settings on record: rat; cited from earlier work.
The test system of test [11] is autoimmune type I diabetes. The settings on record: NOD mouse; cited from earlier work.
Test [12] concerns the target T1, JAK3. The conditions noted are these: cited from earlier work.
Target sequence in this assay (P52333 whole entry, the tested form may be a part): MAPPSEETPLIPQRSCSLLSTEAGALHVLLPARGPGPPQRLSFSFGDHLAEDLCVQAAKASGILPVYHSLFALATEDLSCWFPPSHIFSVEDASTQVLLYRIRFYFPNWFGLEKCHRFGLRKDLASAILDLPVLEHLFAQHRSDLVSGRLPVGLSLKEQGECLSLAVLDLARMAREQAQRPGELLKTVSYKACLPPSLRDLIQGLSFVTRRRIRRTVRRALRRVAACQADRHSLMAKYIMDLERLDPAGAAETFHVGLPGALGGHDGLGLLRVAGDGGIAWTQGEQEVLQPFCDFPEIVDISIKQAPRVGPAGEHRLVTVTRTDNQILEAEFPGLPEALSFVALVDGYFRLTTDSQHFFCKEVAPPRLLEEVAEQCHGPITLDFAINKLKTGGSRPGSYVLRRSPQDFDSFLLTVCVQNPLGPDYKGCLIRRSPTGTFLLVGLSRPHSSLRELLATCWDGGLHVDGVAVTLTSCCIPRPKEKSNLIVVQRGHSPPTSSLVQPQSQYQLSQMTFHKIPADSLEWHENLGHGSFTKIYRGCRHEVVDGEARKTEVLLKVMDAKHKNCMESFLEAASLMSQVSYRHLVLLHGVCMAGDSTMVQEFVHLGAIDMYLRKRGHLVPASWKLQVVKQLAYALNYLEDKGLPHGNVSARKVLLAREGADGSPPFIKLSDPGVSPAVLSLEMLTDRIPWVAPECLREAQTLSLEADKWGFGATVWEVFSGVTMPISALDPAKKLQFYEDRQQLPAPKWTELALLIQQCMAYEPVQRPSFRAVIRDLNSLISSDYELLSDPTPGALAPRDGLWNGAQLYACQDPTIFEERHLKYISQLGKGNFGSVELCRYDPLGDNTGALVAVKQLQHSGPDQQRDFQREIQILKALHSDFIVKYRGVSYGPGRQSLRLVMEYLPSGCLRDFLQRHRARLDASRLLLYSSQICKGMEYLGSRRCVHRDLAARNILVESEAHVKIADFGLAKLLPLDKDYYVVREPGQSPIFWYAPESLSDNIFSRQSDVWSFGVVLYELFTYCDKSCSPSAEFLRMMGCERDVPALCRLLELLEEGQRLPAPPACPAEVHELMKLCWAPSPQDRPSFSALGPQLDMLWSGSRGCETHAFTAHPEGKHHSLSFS
The subject of test [13] is amyotrophic lateral sclerosis (ALS). The conditions noted are these: transgenic mouse model of ALS; cited from earlier work.

Chain of JAK2 (Homo sapiens, UniProt O60674) (O60674 whole entry, looked up, the tested form may be a part): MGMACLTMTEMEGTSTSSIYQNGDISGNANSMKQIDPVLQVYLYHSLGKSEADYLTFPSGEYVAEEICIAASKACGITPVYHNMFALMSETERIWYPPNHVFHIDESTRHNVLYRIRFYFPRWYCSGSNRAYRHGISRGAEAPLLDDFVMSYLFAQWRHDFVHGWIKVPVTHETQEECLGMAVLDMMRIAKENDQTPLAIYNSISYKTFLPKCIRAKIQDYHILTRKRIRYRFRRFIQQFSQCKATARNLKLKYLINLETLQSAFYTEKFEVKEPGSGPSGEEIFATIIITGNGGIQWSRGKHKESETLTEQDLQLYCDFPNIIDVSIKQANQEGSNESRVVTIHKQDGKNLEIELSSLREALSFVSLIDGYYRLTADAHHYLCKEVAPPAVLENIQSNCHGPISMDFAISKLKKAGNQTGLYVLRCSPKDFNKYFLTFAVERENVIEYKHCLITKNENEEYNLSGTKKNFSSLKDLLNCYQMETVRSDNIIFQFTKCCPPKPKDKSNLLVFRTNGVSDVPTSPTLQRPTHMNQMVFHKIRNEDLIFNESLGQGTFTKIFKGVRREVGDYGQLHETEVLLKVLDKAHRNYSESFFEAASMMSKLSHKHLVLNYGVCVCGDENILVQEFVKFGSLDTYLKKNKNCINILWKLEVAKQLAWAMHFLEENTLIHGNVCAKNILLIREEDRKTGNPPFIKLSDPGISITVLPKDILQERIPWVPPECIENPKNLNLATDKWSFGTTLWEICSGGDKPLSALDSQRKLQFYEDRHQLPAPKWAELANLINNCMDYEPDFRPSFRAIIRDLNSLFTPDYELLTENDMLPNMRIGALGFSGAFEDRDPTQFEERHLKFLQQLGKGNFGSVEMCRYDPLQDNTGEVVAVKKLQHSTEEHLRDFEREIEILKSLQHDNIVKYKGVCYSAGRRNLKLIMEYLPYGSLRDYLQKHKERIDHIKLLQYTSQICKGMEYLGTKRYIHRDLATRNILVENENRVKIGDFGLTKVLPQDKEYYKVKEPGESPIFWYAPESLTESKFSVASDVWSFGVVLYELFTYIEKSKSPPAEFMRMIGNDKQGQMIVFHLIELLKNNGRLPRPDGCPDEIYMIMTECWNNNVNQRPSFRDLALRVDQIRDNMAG

Turning to `COc1cc2ncnc(Nc3ccc(O)c(Br)c3)c2cc1OC` [WHI-P-154], in test [1], the “effect on CD40-induced DC maturation” value is reported as “prevented these effects”.

In the case of `O=C(CCl)Nc1cccc(-c2cnc3ccccc3n2)c1` [Example 1, 2-chloro-N-(3-quinoxalin-2-ylphenyl)acetamide], the “JAK3 phosphorylation level increase above background level” value in test [2] was “about 2 fold”. Also, the IC50 in [3] is 0.0002 µM; in [4] it was over 20 µM; in test [5], over 10 µM; in [6] it was over 20 µM; in test [7], over 20 µM; in test [8], 0.0003 µM.

`C[C@@H]1CCN(C(=O)CC#N)C[C@@H]1N(C)c1ncnc2[nH]ccc12` [CP-690550]: the “effect in collagen-induced arthritis” value in test [9] is reported as “therapeutic effects”. For the same molecule, the “effect in adjuvant-induced arthritis” value in test [10] is recorded as “therapeutic effects”.

Take `COc1cc2ncnc(Nc3ccc(O)cc3)c2cc1OC` [JANEX-1]: the onset of diabetes result in test [11] was “delayed the onset of diabetes”.

As for `N#CCC(=O)Nc1cccc(-c2cnc3ccccc3n2)c1` [Example 8, 2-cyano-N-[3-(quinoxalin-2-yl)phenyl]acetamide], the IC50 is 0.136 µM in test [3]; over 20 µM in test [4]; over 10 µM in test [5]; 18.1 µM in test [6]; over 20 µM in test [7].

Consider `O=C(CN1CCN(c2ccccc2)CC1)Nc1cccc(-c2cnc3ccccc3n2)c1` [Example 16, 2-(4-phenylpiperazin-1-yl)-N-[3-(quinoxalin-2-yl)phenyl]acetamide], for which the IC50 is 0.27 µM in test [3]; over 20 µM in [4]; over 10 µM in test [5]; 18 µM in [6]; over 20 µM in test [7]; 0.27 µM in [8].

Take `O=C(CN1CCCCC1)Nc1cccc(-c2cnc3ccccc3n2)c1` [Example 9, 2-(piperidin-1-yl)-N-[3-(quinoxalin-2-yl)phenyl]acetamide]: the IC50 in test [3] was 0.175 µM; in test [4], over 20 µM; in test [5] it was over 10 µM; in test [6], over 20 µM; in test [7] it was over 20 µM.

Turning to `O=S(=O)(Nc1cccc(-c2cnc3ccccc3n2)c1)c1cccs1` [Example 13, N-[3-(quinoxalin-2-yl)phenyl]thiophene-2-sulfonamide], the IC50 is over 50 µM in test [3], over 50 µM in [4], 55.5 µM in test [5] and over 50 µM in test [7].

On to `O=C(CO)Nc1cccc(-c2cnc3ccccc3n2)c1` [Example 29, 2-hydroxy-N-(3-(quinoxalin-2-yl)phenyl)acetamide], for which the IC50 in test [3], in test [4], in [5] and in test [7] was over 10 µM in each case.

Take `O=C(Nc1cccc(-c2cnc3ccccc3n2)c1)C(Cl)Cl` [Example 18, 2,2-dichloro-N-[3-(quinoxalin-2-yl)phenyl]acetamide]: the IC50 in test [3] was 0.5 µM; in [4] it was over 10 µM; in test [5], over 10 µM; in [7], over 10 µM.

Turning to `CCC(=O)Nc1cccc(-c2cnc3ccccc3n2)c1` [Example 6, N-[3-(quinoxalin-2-yl)phenyl]propionamide], the IC50 in test [3], in test [4], in test [5] and in test [7] was over 50 µM in each case.

In the case of `C=CC(=O)Nc1cccc(-c2cnc3ccccc3n2)c1` [Example 22, N-(3-(quinoxalin-2-yl)phenyl)acrylamide], the IC50 was 0.045 µM in test [3], over 10 µM in test [4], over 10 µM in test [5] and over 10 µM in test [7].

With `COc1cc2ncnc(Nc3ccc(O)cc3)c2cc1OC` [WHI-P131], the “JAK3 IC50s” value in test [12] is reported as “low μM ranges”. Also, the survival result in test [13] is recorded as “increased survival”.
